Laboratory results as given in article PMC8041751, “Structural basis for an exceptionally strong preference for asparagine residue at the S2 subsite of Stenotrophomonas maltophilia dipeptidyl peptidase 7” (Scientific Reports, 2021).
Residues, ends and D or L forms follow the SMILES beside them.

Experiments:
SmDPP7 = assay: Inhibition assay using dipeptide library, Tyr-Tyr-MCA hydrolysis; type: biochemical, Stenotrophomonas maltophilia; settings: for Ki: Xaa-Tyr as competitive inhibitor, substrate 200 µM Tyr-Tyr-MCA, pH 7.0, 298 K, Ki from IC50 by Cheng-Prusoff
Experimental: Figure 1 Effect of Xaa-Tyr dipeptides on the hydrolytic activity of SmDPP7 towards synthetic substrate Tyr-Tyr-MCA. Inhibition assay was performed as described in “Materials and methods”. Residual activity was measured under conditions where 200 µM Xaa-Tyr dipeptide and 200 µM Tyr-Tyr-MCA, synthetic substrate were added into the reaction solution. […] The standard deviations were obtained from three independent experiments.
The dipeptide library was purchased from AnaSpec (Fremont, CA, US). Ile-Tyr and Arg-Tyr were synthesized by Eurofins Genomics (Tokyo, Japan). Cys-Tyr and Cys-Asp could not be purchased commercially. Different concentrations (3.13, 6.25, 12.5, 25, 50, 100, and 200 µM) of dipeptides as the inhibitor and 200 µM Tyr-Tyr-MCA (GenScript, NJ, US) as the substrate for DPP7 were added into a reaction buffer consisting of 50 mM sodium phosphate buffer pH 7.0, 5 mM EDTA and 0.005% Tween 20. For DPP11s, different concentrations (1.56, 3.13, 6.25, 12.5, 25, 50, and 100 µM) of dipeptides as the inhibitor and 100 µM Leu-Asp-MCA (Peptide Institute, Osaka, Japan) as the substrate were used. The enzyme reaction was performed at 298 K for 20 min and standard deviations were calculated from three independent experiments. Half-maximal inhibitory concentration (IC50) values were determined by fitting to a sigmoid curve (4-parameter logistic curve) using ImageJ software[35] and inhibition constants (Ki) were calculated using the Cheng-Prusoff Equation[36]. The fluorescence intensity of the released MCA was measured with the same method of determination of kinetics parameters toward dipeptidyl MCA.

wild-type SmDPP7 = assay: Isothermal titration calorimetry of dipeptide binding; parameters: species or system Stenotrophomonas maltophilia; settings: ITC, 50 mM sodium phosphate pH 7.0, 2.5% dimethyl sulfoxide, 25 °C
Experimental: Figure 6 Thermodynamic parameters of dipeptide binding of SmDPP7. The value of thermodynamic parameters is represented in Table S3. The dissociation constant (Kd) and heats of binding (ΔH) were obtained using MICROCAL PEAQ-ITC Analysis software (Malvern, UK). Gibbs free energy (ΔG) and entropy energy (ΔS) were calculated according to the equation, ΔG = − RT ln Ka = RT ln Kd (Ka = 1/ Kd, association constants). Standard deviations were obtained from three independent experiments.
The bindings were analysed using a MICROCAL PEAQ-ITC microcalorimeter (Malvern, UK). The binding reactions were performed in 50 mM sodium phosphate pH 7.0 and 2.5% dimethyl sulfoxide at 25 °C and were stirred at 750 rpm. A single injection of 0.4 μl and 19 times injections of 2.0 μl of the dipeptide solution were injected into 350 μl of enzyme solution (wild-type SmDPP7). The wild-type SmDPP7 concentration was 25 µM and the concentration of each dipeptide solution was 250 µM in reaction buffer. Each injection was performed for 4 s with an interval of 150 s between injections. The dissociation constant (Kd) and heats of binding (ΔH) were obtained using MICROCAL PEAQ-ITC Analysis software (Malvern, UK). Gibbs free energy (ΔG) values were calculated according to ΔG = − RT ln Ka = RT ln Kd (Ka = 1/ Kd, association constants).

Compound | Effect on hydrolytic activity of SmDPP7 (residual activity) (SmDPP7; 200 µM Xaa-Tyr dipeptide and 200 µM Tyr-Tyr-MCA, Fig. 1) | Ki (SmDPP7) [µM] | Kd (wild-type SmDPP7) [µM]
Tyr-Tyr | markedly inhibited | 7.66 ± 1.27 | 6.17 ± 0.39
CC(C)[C@H](N)C(=O)N[C@@H](Cc1ccc(O)cc1)C(=O)O [Val-Tyr] (H-Val-Tyr-OH) |  | 55.2 ± 0.5 | > 40
